Experimental data from paper PMC3235552, “Fragment library screening reveals remarkable similarities between the G protein-coupled receptor histamine H4 and the ion channel serotonin 5-HT3A” (Bioorganic & Medicinal Chemistry Letters, 2011).
Marks after values point to notes of the source that are not given here.

Key:
human H4R [1] = biological target: T1, human H4R (Homo sapiens, UniProt Q9H3N8); test: H4R radioligand displacement of [3H]histamine, HEK293 membranes; type: binding; design: expressed in transfected cells; host or cells: HEK293T (main text: HEK293), transient transfection with polyethyleneimine; details: for Affinity (pKi) H4R: displacement of [3H]histamine, membranes of HEK293 cells transiently expressing human H4R, mean ± SEM, at least three measurements, n.a. = non active
Experimental: For the H4R fragment screen a radioligand displacement study was performed at a 10 μM fragment concentration. Hits were assigned when the fragment displaced 50% or more of the radioligand, resulting in 56 hits (hit rate: 6%). Radioligand binding was measured by displacement of [^3H]histamine using membranes of HEK293 cells transiently expressing the human H4R.[17] For the hit compounds, affinities were determined by subsequent radioligand displacement studies.
The H4R radioligand displacement screen was performed on homogenized HEK293T cells transiently expressing the human H4R. To this end, cells were transfected with 1.25 µg H4R plasmid per million cells using the 25-kDa linear polyethyleneimine. Two days after transfection, cells were collected, washed in PBS, and stored as pellets at -20 °C. Pellets were dissolved in binding buffer and homogenized using a teflon/glass followed by sonification for 3s. Cell homogenates were incubated in 96 well plates with 10µM (final) fragment and 10nM [^3H]-histamine (13.4 Ci/mmol, Perkin Elmer) and for 1.5 hours at room temperature on a table shaker (750rpm). Incubations were terminated by rapid filtration through polyethyleneimene-coated GF/C (Perkin Elmer) filter plates. Bound radioactivity was quantified in a Wallac microbeta counter (Perkin Elmer).

human 5-HT3AR = biological target: T2, human 5-HT3AR (Homo sapiens, UniProt P46098); test: 5-HT3AR radioligand displacement of [3H]granisetron, HEK293 membranes; type: binding; details: for Affinity (pKi) 5-HT3AR: displacement of [3H]granisetron, membranes of HEK293 cells expressing human 5-HT3AR, mean ± SEM, at least two measurements, n.a. = non active
T2 construct: transfected with the human 5-HT3A subunit (PDB ID: P46098) in pcDNA3.1; expressed in transfected cells; cDNA in pcDNA3.1
T2 sequence (P46098 24-478): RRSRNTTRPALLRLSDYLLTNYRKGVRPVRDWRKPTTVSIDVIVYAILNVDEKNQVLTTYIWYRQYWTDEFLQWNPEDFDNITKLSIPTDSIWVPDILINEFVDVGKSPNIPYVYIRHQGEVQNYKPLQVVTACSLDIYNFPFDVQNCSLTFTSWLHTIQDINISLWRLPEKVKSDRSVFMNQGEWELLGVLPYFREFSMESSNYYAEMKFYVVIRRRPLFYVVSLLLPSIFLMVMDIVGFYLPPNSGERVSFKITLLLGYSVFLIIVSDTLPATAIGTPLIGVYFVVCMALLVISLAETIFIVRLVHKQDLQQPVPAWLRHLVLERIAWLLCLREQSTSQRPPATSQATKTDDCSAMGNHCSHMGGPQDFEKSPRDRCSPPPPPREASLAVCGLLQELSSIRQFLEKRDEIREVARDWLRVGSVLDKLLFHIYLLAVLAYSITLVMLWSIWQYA
Experimental: For the 5-HT3AR we performed a high throughput functional fragment screen[18] using a fluorescent readout (Flex Station) applying a fluorescent membrane potential dye. […] From this fragment screening we identified 70 hits for the 5-HT3A receptor (hit rate: 7%). Fragments were screened at a concentration of 100 μM using stably expressed human 5-HT3AR in HEK293 cells. Binding affinities of hits were determined using radioligand binding studies measuring [^3H]granisetron binding using membranes of HEK293 cells expressing the human 5-HT3AR.[18]
5-HT3AR were expressed in HEK293 cells transfected with the human 5-HT3A subunit ([…]: P46098) in pcDNA3.1 (Invitrogen Ltd., Paisley, UK). Stably expressing cells were clonally selected with the addition of the G-418 (Sigma Aldrich Company ltd., Dorset, UK). Cells were routinely grown in 90 mm culture dishes containing Dubelco’s Modified Eagle’s Medium DMEM / Glutamax (Gibco, Invitrogen Ltd.) and passaged when 90% confluency was reached.
[picture] For radioligand binding HEK293 cells at 90% confluency were scraped into 1 ml of ice-cold HEPES buffer (10 mM, pH 7.4) and frozen. After thawing, they were washed with HEPES buffer and homogenised using a fine-bore syringe. 50 µl of cell membranes were incubated in 0.5 ml HEPES buffer containing 0.7 nM [^3H]granisetron (~ Kd) and differing concentrations of the test compound. Competition binding (8 point) was performed on at least three separate plates of transfected cells. Non-specific binding was determined using 1 mM quipazine. Reactions were incubated for at least 24 h at 4°C, to allow compounds with slow kinetics to equilibrate. Incubations were terminated by vacuum filtration using a Brandel cell harvester (Alpha Biotech Ltd., London, UK) onto GF/B filters pre-soaked in 0.3 % polyethyleneimine. Radioactivity was determined by scintillation counting using a Beckman BCLS6500 (Fullerton, California, USA). Data were fit according to the equation:
where L is the concentration of ligand present; BL is the binding in the presence of ligand concentration L; Bmin is the binding when L = 0; Bmax is the binding when L=∞, L50 is the concentration of L which gives a binding equal to (Bmax + Bmin)/2; and nH is the Hill coefficient. Ki values were estimated from IC50 values using the Cheng-Prusoff equation^5
where Ki is the equilibrium dissociation constant for binding of the unlabeled antagonist, IC50 is the concentration of antagonist that blocks half the specific binding, [L] is the free concentration of radioligand and Kd is the equilibrium dissociation constant of the radioligand.

human H4R [2] = biological target: T1, human H4R; test: H4R radioligand binding, membranes of SK-N-MC cells; design: expressed in transfected cells; details: membranes of SK-N-MC cells transiently expressing human H4R; mean ± SEM, at least three measurements
H4R = biological target: H4R; design: method as in PMID 18983139, PMID 19413570; details: Abbott H4R ligands; cited from earlier work

T1 sequence (Q9H3N8 whole entry, the tested form may be a part): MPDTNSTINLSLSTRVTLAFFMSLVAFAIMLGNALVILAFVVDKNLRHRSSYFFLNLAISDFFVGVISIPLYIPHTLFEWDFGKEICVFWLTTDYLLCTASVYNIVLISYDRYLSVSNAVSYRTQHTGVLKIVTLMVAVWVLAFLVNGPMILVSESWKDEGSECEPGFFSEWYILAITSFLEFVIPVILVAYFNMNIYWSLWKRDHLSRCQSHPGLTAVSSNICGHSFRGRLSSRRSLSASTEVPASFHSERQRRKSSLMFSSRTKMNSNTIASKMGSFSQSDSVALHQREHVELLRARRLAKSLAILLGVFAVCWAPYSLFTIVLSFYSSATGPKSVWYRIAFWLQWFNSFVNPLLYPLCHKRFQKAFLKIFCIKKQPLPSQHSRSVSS

SMILES	Affinity (pKi) H4R (human H4R [1])	Affinity (pKi) 5-HT3AR (human 5-HT3AR)	also measured
c1cncc(Cc2c[nH]cn2)c1 [compound 1]	7.0 ± 0.1	–	–
c1ccc(CNCCc2c[nH]cn2)cc1 [compound 2]	6.2 ± 0.1	–	–
CN1CCN(c2cc(-c3ccccc3)ncn2)CC1 [compound 3]	6.7 ± 0.0	–	–
Clc1ccc(C2CCNC2)cc1 (stereo not shown) [compound 4]	–	6.1 ± 0.2	–
Nc1ccc2cc3ccccc3nc2c1 [compound 5]	–	6.0 ± 0.0	–
N=C(N)NCCCc1ccccc1 [compound 6]	–	6.1 ± 0.1	–
CN1CCN(c2ccc3cc(Cl)ccc3n2)CC1 [compound 7]	6.2 ± 0.0	6.6 ± 0.3	affinities for 5-HT3R and H4R compared (human 5-HT3AR; from affinities of Table 1): comparable affinities
CN1CCN(c2nc3ccccc3nc2O)CC1 [compound 8]	7.2 ± 0.0	7.9 ± 0.3	affinities for 5-HT3R and H4R compared (human 5-HT3AR; from affinities of Table 1): comparable affinities
CN1CCC(=Cc2nc3cc(Cl)ccc3[nH]2)CC1 [compound 9]	–	8.8 ± 0.1	Affinity (pKi) H4R (human H4R [2]): 6.1 ± 0.1 ^b; selectivity for 5-HT3R over H4R (human 5-HT3AR; from affinities of Table 1): 500 fold
CN1CCN(c2cc(-c3ccccc3)nc(N)n2)CC1 [compound 10]	8.2 ± 0.1	5.9 ± 0.1	selectivity for H4R over 5-HT3R (human H4R [1]; from affinities of Table 1): 200 fold
c1nc(CC2CCCCC2)c[nH]1 [compound 11]	–	5.9 ± 0.3	Affinity (pKi) H4R (human H4R [2]): 6.2 ± 0.1 ^b; affinities for 5-HT3R and H4R compared (human 5-HT3AR; from affinities of Table 1): comparable affinities
Nc1nc2c(c(N3CCNCC3)n1)CCCc1ccccc1-2 [compound 13]	–	–	H4R pKi (H4R): 7.1
